Assays:
Botrytis cinerea = assay: Direct protectant activity against broad bean grey mould (BCB); assay type: in vivo; settings: direct protectant foliar spray, 600 ppm, 4 days
Method in brief: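 Broad bean plants (cv The Sutton, two leaf pairs) sprayed on upper leaf surfaces at 600 ppm, then inoculated 24 h later with 10^6 conidia/ml. Kept 4 days at 22 °C, high humidity; disease control rated from % leaf area with lesions against untreated or diluent controls.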

[1] = test system: Pseudocercosporella herpotrichoides; assay: Activity against wheat eyespot in-vitro (PHI); assay type: cell-based; settings: 10 ppm, 10 days, 20° C., mycelial growth
Method in brief: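 P. herpotrichoides mycelial fragments (5×10^4/ml) grown in half-strength PDB with compound at 10 ppm final, added from acetone. Incubated 10 days at 20 °C; mycelial growth rated against untreated or diluent controls.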

Venturia inaequalis = assay: Activity against apple scab in-vitro (VII); assay type: cell-based; settings: 10 ppm, 10 days, 20° C., mycelial growth
Method in brief: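 Compound in acetone was tested at 10 ppm final in half-strength Potato Dextrose Broth inoculated with V. inaequalis mycelial fragments and spores at 5×10^4 propagules/ml. After 10 days at 20° C, mycelial growth was rated against untreated or diluent controls.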

Phytophthora infestans = assay type: in vivo; settings: tomato, direct protectant foliar spray
[2] = test system: Erysiphe graminis f.sp. hordei; assay: Activity against barley powdery mildew, direct therapeutic (EGT); assay type: in vivo; settings: direct therapeutic foliar spray, 600 ppm, up to 7 days
Method in brief: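 Barley seedlings (cv. Golden Promise, single-leaf stage) were dusted with mildew conidia one day before a therapeutic foliar spray of 600 ppm compound. Plants were kept at 18 °C and 40% humidity for up to 7 days, and sporulating leaf area was rated against untreated or diluent-sprayed controls.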

Leptosphaeria nodorum = assay: Activity against wheat leafspot (LN); assay type: in vivo; settings: direct therapeutic foliar spray, 600 ppm, 6-8 days
Method in brief: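 Wheat cv Norman at single-leaf stage spray-inoculated with 1.5×10^6 conidia/ml, held 24 h at high humidity, then sprayed therapeutically with test compound at 600 ppm. Kept 6-8 days at 22° C, 70% humidity; lesion density per leaf rated against untreated or diluent-sprayed controls.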

[3] = test system: Erysiphe graminis f.sp. hordei; assay: Direct protectant activity against barley powdery mildew (EGP); assay type: in vivo; settings: direct protectant foliar spray, 8 days
Method in brief: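 Barley seedlings (cv Golden Promise, single-leaf stage) were foliar-sprayed, held 24 h at 18 °C/40% RH, then dusted with mildew conidia. After 8 days at 18 °C/40% RH, sporulating leaf area was scored as a rating against untreated or diluent-sprayed controls.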

Pyricularia oryzae = assay type: in vivo; settings: rice seedlings, direct therapeutic foliar spray, 600 ppm, 4-5 days
Rhizoctonia solani = assay: Activity against Rhizoctonia in-vitro (RSI); assay type: cell-based; settings: 10 ppm, 10 days, 20° C., mycelial growth
Method in brief: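 R. solani mycelial fragments (5×10^4/ml) in half-strength Potato Dextrose Broth with compound added from acetone to 10 ppm final. Mycelial growth assessed after 10 days at 20° C, rated against untreated or diluent control.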

Alternaria solani = assay: Activity against tomato early blight (AS); assay type: in vivo; settings: Table VI; tomato seedlings, contact prophylactic foliar spray, 4 days
Method in brief: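 Foliar contact prophylactic spray on tomato seedlings (cv Outdoor Girl, second true leaf expanded) in acetone/water 50:50 with 0.04% Tween 20; 24 h at 20° C, 40% R.H., then inoculation with 10^4 spores/ml A. solani conidia. Kept moist at 21° C; lesion cover rated 4 days post-inoculation against untreated or diluent-sprayed controls.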

Plasmopara viticola = assay: Antisporulant activity against vine downy mildew (PVA); assay type: in vivo; settings: vine leaves, antisporulant foliar spray, 600 ppm, 750 l/ha
Method in brief: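 Cabernet Sauvignon vines (~8 cm) inoculated on lower leaf surfaces with 5×10^4 zoosporangia/ml, held 24 h at 21° C high humidity then 24 h glasshouse. Infected leaves sprayed underside with 600 ppm compound in 1:1 water/acetone, 0.04% Tween 20, 750 l/ha; 96 h glasshouse, 24 h humidity. Sporulating leaf area rated versus control.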

CC(C)CNC1COC2(CCC(C(C)(C)C3CCCCC3)CC2)C1 (stereo not shown) [Compound 139]
disease control rating BCB (Botrytis cinerea): 0 (less than 50% disease control) | disease control rating PHI [1]: 2 (greater than 80% disease control) | disease control rating VII (Venturia inaequalis): 2 (greater than 80% disease control) | disease control rating PIP (Phytophthora infestans): 0 (less than 50% disease control) | disease control rating EGT [2]: 2 (greater than 80% disease control) | disease control rating LN (Leptosphaeria nodorum): 1 (about 50-80% disease control) | disease control rating EGP [3]: 2 (greater than 80% disease control) | disease control rating PO (Pyricularia oryzae): 0 (less than 50% disease control) | disease control rating RSI (Rhizoctonia solani): 0 (less than 50% disease control) | disease control rating AS (Alternaria solani): 0 (less than 50% disease control) | disease control rating PVA (Plasmopara viticola): 0 (less than 50% disease control)

CC(C)(C)C1CCC2(CC1)CC(NC1CC1)CO2 (stereo not shown) [Compound 71]
disease control rating BCB (Botrytis cinerea): 0 (less than 50% disease control) | disease control rating PHI [1]: 0 (less than 50% disease control) | disease control rating VII (Venturia inaequalis): 1 (about 50-80% disease control) | disease control rating PIP (Phytophthora infestans): 2 (greater than 80% disease control) | disease control rating EGT [2]: 2 (greater than 80% disease control) | disease control rating LN (Leptosphaeria nodorum): 1 (about 50-80% disease control) | disease control rating EGP [3]: 2 (greater than 80% disease control) | disease control rating PO (Pyricularia oryzae): 0 (less than 50% disease control) | disease control rating RSI (Rhizoctonia solani): 0 (less than 50% disease control) | disease control rating AS (Alternaria solani): 0 (less than 50% disease control) | disease control rating PVA (Plasmopara viticola): 0 (less than 50% disease control)

CN(C)CCC1COC2(CCC(C(C)(C)C)CC2)C1 (stereo not shown) [Compound 191]
disease control rating BCB (Botrytis cinerea): 0 (less than 50% disease control) | disease control rating PHI [1]: 0 (less than 50% disease control) | disease control rating VII (Venturia inaequalis): 0 (less than 50% disease control) | disease control rating PIP (Phytophthora infestans): 0 (less than 50% disease control) | disease control rating EGT [2]: 0 (less than 50% disease control) | disease control rating LN (Leptosphaeria nodorum): 0 (less than 50% disease control) | disease control rating EGP [3]: 2 (greater than 80% disease control) | disease control rating PO (Pyricularia oryzae): 0 (less than 50% disease control) | disease control rating RSI (Rhizoctonia solani): 0 (less than 50% disease control) | disease control rating AS (Alternaria solani): 0 (less than 50% disease control) | disease control rating PVA (Plasmopara viticola): 0 (less than 50% disease control)

CC(C)(C)C1CCC2(CC1)CC(NCC1CCCCC1)CO2 (stereo not shown) [Compound 82]
disease control rating BCB (Botrytis cinerea): 2 (greater than 80% disease control) | disease control rating PHI [1]: 0 (less than 50% disease control) | disease control rating VII (Venturia inaequalis): 0 (less than 50% disease control) | disease control rating PIP (Phytophthora infestans): 0 (less than 50% disease control) | disease control rating EGT [2]: 2 (greater than 80% disease control) | disease control rating LN (Leptosphaeria nodorum): 1 (about 50-80% disease control) | disease control rating EGP [3]: 2 (greater than 80% disease control) | disease control rating PO (Pyricularia oryzae): 0 (less than 50% disease control) | disease control rating RSI (Rhizoctonia solani): 0 (less than 50% disease control) | disease control rating AS (Alternaria solani): 0 (less than 50% disease control) | disease control rating PVA (Plasmopara viticola): 0 (less than 50% disease control)

CCCCCCN(C)C1COC2(CCCCC2)C1 (stereo not shown) [Compound 59]
disease control rating BCB (Botrytis cinerea): 0 (less than 50% disease control) | disease control rating PHI [1]: 0 (less than 50% disease control) | disease control rating VII (Venturia inaequalis): 0 (less than 50% disease control) | disease control rating PIP (Phytophthora infestans): 0 (less than 50% disease control) | disease control rating EGT [2]: 2 (greater than 80% disease control) | disease control rating LN (Leptosphaeria nodorum): 0 (less than 50% disease control) | disease control rating EGP [3]: 2 (greater than 80% disease control) | disease control rating PO (Pyricularia oryzae): 0 (less than 50% disease control) | disease control rating RSI (Rhizoctonia solani): 0 (less than 50% disease control) | disease control rating AS (Alternaria solani): 0 (less than 50% disease control) | disease control rating PVA (Plasmopara viticola): 0 (less than 50% disease control)

— patent US5591741A, “Fungicidal spiroheterocyclic derivatives” (American Cyanamid Company, priority 1993, dated 1997)
